Measurements from ChEMBL document CHEMBL5291721, “A preclinical secondary pharmacology resource illuminates target-adverse drug reaction associations of marketed drugs” (Nat Commun, 2023).

Key:
[1] = biological target: 5-hydroxytryptamine receptor 2B (Homo sapiens, UniProt P41595); assay type: functional, cell-based
D(1A) dopamine receptor = D(1A) dopamine receptor (Homo sapiens, UniProt P21728); assay type: functional, cell-based
[2] = biological target: T1, Prostaglandin G/H synthase 1 (Rattus norvegicus, UniProt Q63921); assay type: functional
T1 sequence (Q63921 whole entry): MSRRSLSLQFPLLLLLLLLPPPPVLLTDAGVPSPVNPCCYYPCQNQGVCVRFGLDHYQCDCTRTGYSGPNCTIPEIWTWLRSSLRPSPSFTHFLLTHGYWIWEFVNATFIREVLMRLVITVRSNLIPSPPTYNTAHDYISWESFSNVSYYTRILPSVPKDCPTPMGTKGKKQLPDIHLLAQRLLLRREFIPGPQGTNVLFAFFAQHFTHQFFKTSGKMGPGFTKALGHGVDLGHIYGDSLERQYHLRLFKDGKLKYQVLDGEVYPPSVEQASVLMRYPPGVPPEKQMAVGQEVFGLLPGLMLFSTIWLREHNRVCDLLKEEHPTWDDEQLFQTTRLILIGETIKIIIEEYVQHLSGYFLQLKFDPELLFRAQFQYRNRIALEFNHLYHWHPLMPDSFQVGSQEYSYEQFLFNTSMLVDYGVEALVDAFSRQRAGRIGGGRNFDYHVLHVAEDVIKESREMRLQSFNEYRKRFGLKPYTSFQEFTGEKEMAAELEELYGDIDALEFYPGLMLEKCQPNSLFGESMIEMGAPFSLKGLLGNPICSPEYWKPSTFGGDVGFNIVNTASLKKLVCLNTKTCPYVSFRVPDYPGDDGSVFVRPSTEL

[3] = biological target: Sodium-dependent dopamine transporter (Homo sapiens, UniProt Q01959)
Sequence of Sodium-dependent dopamine transporter (Q01959 whole entry): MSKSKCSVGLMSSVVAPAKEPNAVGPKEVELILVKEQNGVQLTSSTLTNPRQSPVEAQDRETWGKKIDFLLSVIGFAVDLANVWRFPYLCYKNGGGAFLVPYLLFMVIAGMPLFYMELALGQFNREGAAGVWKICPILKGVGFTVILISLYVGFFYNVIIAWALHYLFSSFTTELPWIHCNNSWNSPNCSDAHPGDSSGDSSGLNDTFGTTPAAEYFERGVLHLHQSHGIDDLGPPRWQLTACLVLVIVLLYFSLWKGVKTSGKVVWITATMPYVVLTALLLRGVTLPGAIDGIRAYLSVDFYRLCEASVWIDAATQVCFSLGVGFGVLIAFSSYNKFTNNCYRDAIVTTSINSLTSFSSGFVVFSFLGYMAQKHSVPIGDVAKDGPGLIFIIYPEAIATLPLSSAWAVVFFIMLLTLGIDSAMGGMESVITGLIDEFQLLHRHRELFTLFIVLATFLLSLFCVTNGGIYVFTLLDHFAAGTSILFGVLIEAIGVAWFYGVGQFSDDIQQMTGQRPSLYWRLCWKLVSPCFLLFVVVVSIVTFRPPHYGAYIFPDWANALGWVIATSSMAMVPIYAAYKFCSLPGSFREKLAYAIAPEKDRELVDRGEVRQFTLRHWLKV

[4] = biological target: T2, Alpha-2A adrenergic receptor (Homo sapiens, UniProt P08913); assay type: functional, cell-based
T2 sequence (P08913 whole entry): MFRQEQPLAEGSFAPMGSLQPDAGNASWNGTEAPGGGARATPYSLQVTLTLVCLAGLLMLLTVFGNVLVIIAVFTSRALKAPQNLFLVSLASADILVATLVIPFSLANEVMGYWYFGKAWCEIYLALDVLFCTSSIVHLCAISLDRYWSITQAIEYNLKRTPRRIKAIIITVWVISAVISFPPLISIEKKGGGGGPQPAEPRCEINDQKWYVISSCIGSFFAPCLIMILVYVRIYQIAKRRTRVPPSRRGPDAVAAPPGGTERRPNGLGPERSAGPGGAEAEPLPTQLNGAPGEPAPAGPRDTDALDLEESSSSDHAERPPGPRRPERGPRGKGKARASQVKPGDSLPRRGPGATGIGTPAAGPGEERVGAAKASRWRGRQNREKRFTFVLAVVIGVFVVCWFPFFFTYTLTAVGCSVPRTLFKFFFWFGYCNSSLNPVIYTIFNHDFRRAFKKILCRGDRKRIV

Melanocortin receptor 3 = Melanocortin receptor 3 (Homo sapiens, UniProt P41968)
Sequence of Melanocortin receptor 3 (P41968 whole entry): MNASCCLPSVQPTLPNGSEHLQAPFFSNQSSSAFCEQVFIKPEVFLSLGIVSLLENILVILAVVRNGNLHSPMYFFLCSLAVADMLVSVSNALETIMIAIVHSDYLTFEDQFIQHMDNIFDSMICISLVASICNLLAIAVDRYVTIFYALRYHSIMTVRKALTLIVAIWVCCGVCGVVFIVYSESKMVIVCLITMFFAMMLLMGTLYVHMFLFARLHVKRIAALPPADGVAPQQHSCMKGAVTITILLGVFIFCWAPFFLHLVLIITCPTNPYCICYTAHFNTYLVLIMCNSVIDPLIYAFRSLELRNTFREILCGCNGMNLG

[5] = biological target: T2, Alpha-2A adrenergic receptor; assay type: functional, cell-based; remark: listed apart in the source
[6] = biological target: Delta-type opioid receptor (Homo sapiens, UniProt P41143)
Sequence of Delta-type opioid receptor (P41143 whole entry): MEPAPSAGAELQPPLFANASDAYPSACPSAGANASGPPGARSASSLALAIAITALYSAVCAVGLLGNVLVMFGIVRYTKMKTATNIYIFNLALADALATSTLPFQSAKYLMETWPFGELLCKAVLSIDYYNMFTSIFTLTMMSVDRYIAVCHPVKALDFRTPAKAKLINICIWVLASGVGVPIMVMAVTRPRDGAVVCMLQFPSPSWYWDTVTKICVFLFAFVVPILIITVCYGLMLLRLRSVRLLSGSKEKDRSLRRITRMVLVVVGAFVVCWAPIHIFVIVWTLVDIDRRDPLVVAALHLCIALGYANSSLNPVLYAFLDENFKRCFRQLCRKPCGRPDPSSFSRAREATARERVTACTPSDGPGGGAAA

[7] = biological target: T3, Muscarinic acetylcholine receptor M2 (Homo sapiens, UniProt P08172); assay type: functional, cell-based
T3 sequence (P08172 whole entry): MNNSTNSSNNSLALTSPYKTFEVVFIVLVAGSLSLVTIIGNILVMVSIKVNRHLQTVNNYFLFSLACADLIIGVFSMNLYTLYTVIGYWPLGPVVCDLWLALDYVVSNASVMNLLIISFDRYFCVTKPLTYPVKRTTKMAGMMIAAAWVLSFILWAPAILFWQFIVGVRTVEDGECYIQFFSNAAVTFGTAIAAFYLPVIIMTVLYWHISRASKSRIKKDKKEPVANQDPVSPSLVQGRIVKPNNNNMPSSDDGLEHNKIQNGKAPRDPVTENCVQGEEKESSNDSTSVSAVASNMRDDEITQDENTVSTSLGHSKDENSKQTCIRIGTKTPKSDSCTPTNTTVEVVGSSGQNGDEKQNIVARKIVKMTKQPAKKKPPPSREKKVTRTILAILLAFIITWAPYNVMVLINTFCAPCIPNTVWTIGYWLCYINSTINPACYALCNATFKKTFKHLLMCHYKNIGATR

[8] = biological target: T4, 5-hydroxytryptamine receptor 2C (Homo sapiens, UniProt P28335)
T4 sequence (P28335 whole entry): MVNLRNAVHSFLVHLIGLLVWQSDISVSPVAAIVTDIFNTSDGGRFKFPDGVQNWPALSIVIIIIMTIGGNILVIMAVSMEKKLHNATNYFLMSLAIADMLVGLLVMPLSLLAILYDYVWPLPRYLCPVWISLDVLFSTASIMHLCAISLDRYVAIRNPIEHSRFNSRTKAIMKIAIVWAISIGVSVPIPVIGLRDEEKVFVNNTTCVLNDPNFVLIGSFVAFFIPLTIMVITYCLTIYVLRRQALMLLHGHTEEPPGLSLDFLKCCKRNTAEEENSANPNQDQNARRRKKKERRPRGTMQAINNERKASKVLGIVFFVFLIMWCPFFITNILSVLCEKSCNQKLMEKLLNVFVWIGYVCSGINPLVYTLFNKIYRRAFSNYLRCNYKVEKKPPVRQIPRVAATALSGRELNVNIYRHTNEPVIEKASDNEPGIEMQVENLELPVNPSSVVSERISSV

Bile salt export pump = Bile salt export pump (Homo sapiens, UniProt O95342); assay type: functional
Sequence of Bile salt export pump (O95342 whole entry): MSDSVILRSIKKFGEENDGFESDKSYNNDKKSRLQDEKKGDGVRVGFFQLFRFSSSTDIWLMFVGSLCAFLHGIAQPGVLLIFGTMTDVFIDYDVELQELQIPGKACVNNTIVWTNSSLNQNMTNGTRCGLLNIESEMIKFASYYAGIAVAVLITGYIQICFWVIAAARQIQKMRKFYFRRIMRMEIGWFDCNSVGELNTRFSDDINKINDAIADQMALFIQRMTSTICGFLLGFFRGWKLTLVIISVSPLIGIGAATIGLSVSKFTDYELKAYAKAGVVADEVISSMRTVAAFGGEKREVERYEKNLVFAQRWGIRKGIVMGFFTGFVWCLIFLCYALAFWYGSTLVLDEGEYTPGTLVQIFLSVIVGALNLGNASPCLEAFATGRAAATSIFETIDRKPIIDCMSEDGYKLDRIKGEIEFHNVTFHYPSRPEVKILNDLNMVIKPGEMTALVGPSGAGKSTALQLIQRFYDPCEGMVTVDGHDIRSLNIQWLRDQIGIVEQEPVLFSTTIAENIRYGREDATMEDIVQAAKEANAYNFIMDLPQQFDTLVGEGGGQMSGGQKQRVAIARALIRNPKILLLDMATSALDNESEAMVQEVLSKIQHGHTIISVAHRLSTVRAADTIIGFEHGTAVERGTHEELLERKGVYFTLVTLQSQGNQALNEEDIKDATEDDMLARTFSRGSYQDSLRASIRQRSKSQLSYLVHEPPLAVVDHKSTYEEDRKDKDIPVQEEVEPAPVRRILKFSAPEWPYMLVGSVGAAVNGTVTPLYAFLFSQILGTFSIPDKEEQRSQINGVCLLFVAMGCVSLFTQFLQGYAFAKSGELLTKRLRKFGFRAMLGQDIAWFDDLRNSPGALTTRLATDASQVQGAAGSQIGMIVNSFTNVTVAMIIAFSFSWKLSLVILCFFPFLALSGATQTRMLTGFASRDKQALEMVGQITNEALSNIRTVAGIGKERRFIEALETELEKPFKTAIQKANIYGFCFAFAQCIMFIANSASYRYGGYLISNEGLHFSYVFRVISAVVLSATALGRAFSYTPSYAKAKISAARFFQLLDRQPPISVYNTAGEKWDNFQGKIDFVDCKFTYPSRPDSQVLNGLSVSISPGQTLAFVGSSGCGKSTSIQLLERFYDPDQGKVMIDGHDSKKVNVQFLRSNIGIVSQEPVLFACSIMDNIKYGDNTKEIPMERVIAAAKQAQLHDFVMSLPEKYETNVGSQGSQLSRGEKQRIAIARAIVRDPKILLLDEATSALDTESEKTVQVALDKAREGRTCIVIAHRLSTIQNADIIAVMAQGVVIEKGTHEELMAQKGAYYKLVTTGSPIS

[9] = biological target: Sodium-dependent noradrenaline transporter (Homo sapiens, UniProt P23975)
Sequence of Sodium-dependent noradrenaline transporter (P23975 whole entry): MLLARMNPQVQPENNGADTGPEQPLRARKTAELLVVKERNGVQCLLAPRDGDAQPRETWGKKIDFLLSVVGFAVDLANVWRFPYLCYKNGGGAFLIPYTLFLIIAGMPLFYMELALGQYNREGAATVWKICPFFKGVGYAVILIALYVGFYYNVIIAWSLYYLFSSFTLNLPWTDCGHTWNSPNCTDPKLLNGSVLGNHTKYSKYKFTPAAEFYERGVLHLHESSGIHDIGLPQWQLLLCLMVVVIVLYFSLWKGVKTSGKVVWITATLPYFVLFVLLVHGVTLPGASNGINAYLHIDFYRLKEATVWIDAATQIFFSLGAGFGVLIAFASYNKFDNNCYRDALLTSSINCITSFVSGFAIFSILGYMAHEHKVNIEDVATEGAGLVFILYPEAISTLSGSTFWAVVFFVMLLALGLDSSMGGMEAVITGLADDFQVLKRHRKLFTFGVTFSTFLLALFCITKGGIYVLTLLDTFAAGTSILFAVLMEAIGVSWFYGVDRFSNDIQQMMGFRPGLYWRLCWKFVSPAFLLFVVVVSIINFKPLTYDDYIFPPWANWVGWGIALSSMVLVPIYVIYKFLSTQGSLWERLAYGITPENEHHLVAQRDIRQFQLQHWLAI

Adenosine receptor A3 = biological target: T5, Adenosine receptor A3 (Homo sapiens, UniProt P0DMS8)
T5 sequence (P0DMS8 whole entry): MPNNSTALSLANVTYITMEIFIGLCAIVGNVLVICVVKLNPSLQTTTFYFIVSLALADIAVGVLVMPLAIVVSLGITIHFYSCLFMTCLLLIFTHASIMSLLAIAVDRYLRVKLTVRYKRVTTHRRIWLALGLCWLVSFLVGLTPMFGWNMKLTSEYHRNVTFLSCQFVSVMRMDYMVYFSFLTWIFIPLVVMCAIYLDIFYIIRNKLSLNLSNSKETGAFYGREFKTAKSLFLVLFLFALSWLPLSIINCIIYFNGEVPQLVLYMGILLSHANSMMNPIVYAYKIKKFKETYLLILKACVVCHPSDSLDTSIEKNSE

[10] = biological target: Gamma-aminobutyric acid receptor subunit alpha-1 (Rattus norvegicus, UniProt P62813); assay type: functional
Sequence of Gamma-aminobutyric acid receptor subunit alpha-1 (P62813 whole entry): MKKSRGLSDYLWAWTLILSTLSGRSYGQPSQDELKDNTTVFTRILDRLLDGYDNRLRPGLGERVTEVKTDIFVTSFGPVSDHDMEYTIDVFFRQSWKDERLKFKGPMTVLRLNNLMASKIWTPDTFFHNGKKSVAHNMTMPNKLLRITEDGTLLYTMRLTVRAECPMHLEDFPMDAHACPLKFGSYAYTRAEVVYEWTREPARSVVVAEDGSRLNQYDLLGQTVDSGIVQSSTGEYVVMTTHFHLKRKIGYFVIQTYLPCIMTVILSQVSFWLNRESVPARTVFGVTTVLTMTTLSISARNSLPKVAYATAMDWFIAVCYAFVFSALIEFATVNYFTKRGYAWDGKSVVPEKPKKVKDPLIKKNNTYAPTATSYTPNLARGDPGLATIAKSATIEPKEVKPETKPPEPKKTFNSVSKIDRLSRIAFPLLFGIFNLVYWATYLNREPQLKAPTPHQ

D(3) dopamine receptor = D(3) dopamine receptor (Homo sapiens, UniProt P35462)
Also: assay procedure not described here.

Sequence of 5-hydroxytryptamine receptor 2B (P41595 whole entry): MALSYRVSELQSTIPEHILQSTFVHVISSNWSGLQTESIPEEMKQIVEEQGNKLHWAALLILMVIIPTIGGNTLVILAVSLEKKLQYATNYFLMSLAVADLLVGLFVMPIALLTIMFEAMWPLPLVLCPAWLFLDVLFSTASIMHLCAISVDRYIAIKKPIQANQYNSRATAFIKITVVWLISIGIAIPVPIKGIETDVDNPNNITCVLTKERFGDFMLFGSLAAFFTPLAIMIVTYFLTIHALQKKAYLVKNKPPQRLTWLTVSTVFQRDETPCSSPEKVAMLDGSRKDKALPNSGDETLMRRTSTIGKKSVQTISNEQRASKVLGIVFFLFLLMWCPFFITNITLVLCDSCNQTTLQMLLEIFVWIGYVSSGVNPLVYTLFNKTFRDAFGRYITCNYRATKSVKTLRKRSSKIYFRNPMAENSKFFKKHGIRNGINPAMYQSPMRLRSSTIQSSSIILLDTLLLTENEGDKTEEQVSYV
Sequence of D(1A) dopamine receptor (P21728 whole entry): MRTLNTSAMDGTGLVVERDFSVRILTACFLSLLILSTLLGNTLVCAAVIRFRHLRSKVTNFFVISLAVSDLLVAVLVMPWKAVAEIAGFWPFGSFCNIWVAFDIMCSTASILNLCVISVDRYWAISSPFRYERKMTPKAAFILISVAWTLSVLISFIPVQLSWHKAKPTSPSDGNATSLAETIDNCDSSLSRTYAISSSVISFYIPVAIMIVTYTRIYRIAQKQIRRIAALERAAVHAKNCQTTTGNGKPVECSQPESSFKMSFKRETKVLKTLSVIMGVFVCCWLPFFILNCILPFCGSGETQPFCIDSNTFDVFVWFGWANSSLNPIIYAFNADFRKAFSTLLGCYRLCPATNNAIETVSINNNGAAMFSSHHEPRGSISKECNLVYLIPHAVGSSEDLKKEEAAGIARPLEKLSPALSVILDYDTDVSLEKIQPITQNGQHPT

Row | SMILES | AC50 [1] | AC50 (D(1A) dopamine receptor) | AC50 [2] | AC50 [3] | AC50 [4] | AC50 (Melanocortin receptor 3) | AC50 [5] | AC50 [6] | AC50 [7] | AC50 [8] | AC50 (Bile salt export pump) | AC50 [9] | AC50 (Adenosine receptor A3) | AC50 [10] | AC50 (D(3) dopamine receptor)
1 | NCC(CC(=O)O)c1ccc(Cl)cc1 (stereo not given) [BACLOFEN] | > 30 µM | > 30 µM | > 30 µM | > 30 µM | > 30 µM | > 30 µM | > 30 µM | > 30 µM | > 30 µM | > 30 µM | > 300 µM | > 30 µM | 4.2 µM | > 30 µM | > 30 µM
2 | CCCSc1ccc2nc(NC(=O)OC)[nH]c2c1 [ALBENDAZOLE] | > 10 µM | > 10 µM | > 30 µM | > 30 µM | > 10 µM | > 30 µM | > 10 µM | > 30 µM | > 10 µM | > 30 µM | > 300 µM | > 30 µM | > 30 µM | > 10 µM | > 30 µM
3 | CO[C@H]1C[C@@H]2CC[C@@H](C)[C@@](O)(O2)C(=O)C(=O)N2CCCC[C@H]2C(=O)O[C@H]([C@H](C)C[C@@H]2CC[C@@H](O)[C@H](OC)C2)CC(=O)[C@H](C)/C=C(\C)[C@@H](O)[C@@H](OC)C(=O)[C@H](C)C[C@H](C)/C=C/C=C/C=C/1C [SIROLIMUS] | > 10 µM | > 10 µM | > 30 µM | > 30 µM | > 10 µM | > 30 µM | > 10 µM | > 30 µM | > 10 µM | > 30 µM | 1.01 µM | > 30 µM | 21.3 µM | > 10 µM | 0.87 µM
4 | CCC(C)n1ncn(-c2ccc(N3CCN(c4ccc(OCC5COC(Cn6cncn6)(c6ccc(Cl)cc6Cl)O5)cc4)CC3)cc2)c1=O (stereo not given) [ITRACONAZOLE] | > 30 µM | > 30 µM | > 30 µM | > 30 µM | > 30 µM | > 30 µM | > 30 µM | > 30 µM | > 30 µM | > 30 µM | 0.66 µM | > 30 µM | > 30 µM | > 30 µM | > 30 µM
